Assay results as given in ChEMBL document CHEMBL1148056, “Four new dimeric peptide alkaloids, anchinopeptolides B-D, and cycloanchinopeptolide C, congeners of anchinopeptolide A, from the Mediterranean marine sponge Anchinoe tenacior” (J Nat Prod, 1994).

Tests used:
Rattus norvegicus [1] = species: Rattus norvegicus; test: Displacement of [125I]somatostatin from rat somatostatin receptor at 5 ug/ml
Rattus norvegicus [2] = species: Rattus norvegicus; test: Displacement of [3H]NPY from rat neuropeptide Y receptor at 5 ug/ml
[3] = molecular target: B2 bradykinin receptor (Homo sapiens) (UniProt P30411); test: Displacement of [3H]bradykinin from human B2 bradykinin receptor expressed in SF21 cells at 5 ug/ml
Chain of B2 bradykinin receptor (Homo sapiens) (P30411 whole entry, looked up): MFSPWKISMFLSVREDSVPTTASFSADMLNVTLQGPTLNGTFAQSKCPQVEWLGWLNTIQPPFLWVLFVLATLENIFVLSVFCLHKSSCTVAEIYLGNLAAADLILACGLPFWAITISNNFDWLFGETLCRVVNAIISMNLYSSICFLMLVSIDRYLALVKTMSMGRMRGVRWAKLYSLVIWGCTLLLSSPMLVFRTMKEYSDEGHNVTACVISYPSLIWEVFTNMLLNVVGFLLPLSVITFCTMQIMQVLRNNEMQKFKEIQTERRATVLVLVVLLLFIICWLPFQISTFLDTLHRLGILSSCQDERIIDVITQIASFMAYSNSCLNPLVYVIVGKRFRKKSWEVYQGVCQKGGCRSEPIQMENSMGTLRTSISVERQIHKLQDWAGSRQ

Row | SMILES | Activity (Rattus norvegicus [1]) [%] | Activity (Rattus norvegicus [2]) [%] | Activity [3] [%]
1 | N=C(N)NCCC[C@@]1(O)C(=O)N(CC(=O)N/C=C/c2ccc(O)cc2)[C@@](O)(C(=O)NCC(=O)N/C=C/c2ccc(O)cc2)[C@@H]1CCNC(=N)N | 77 |  | 
2 | C[C@H](NC(=O)[C@@]1(O)[C@H](CCNC(=N)N)[C@@](O)(CCCNC(=N)N)C(=O)N1[C@@H](C)C(=O)N/C=C/c1ccc(O)cc1)C(=O)N/C=C/c1ccc(O)cc1 | 35 | 35 | 35
3 | C[C@@H](C(=O)N/C=C/c1ccc(O)cc1)N1C(=O)[C@](O)(CCCNC(=N)N)[C@@H](CCNC(=N)N)[C@]1(O)C(=O)NCC(=O)N/C=C/c1ccc(O)cc1 |  | 80 | 71
4 | C[C@H](NC(=O)[C@@]1(O)[C@H](CCNC(=N)N)[C@@](O)(CCCNC(=N)N)C(=O)N1CC(=O)N/C=C/c1ccc(O)cc1)C(=O)N/C=C/c1ccc(O)cc1 | 62 | 57 | 52
